In ChEMBL document CHEMBL1201862, “PubChem BioAssay data set” (2004):
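Exposure lasted 48 hours, with cells grown in 96-well plates and compounds tested at five concentrations. Abbreviation: GI50, concentration required for 50% inhibition of growth.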 Calls of active or inactive are those of the source. No stated cut-off is given here; in the data, active = GI50 up to about 1.1 µM and inactive = higher.

Key:
Experiment in all cases: NCI anticancer screen, dose series, 48 h
[1] = system: A549
[2] = system: ACHN
[3] = system: BT-549
[4] = system: CAKI-1
[5] = system: CCRF-CEM
[6] = system: COLO 205
[7] = system: DU-145
[8] = system: EKVX
[9] = system: HCC 2998
[10] = system: HCT-116
[11] = system: HOP-62
[12] = system: HOP-92
[13] = system: HT-29
[14] = system: Hs-578T
[15] = system: IGROV-1
[16] = system: K562
[17] = system: KM12
[18] = system: LOX IMVI
[19] = system: M14
[20] = system: MCF7
[21] = system: MDA-MB-231
[22] = system: MDA-MB-435
[23] = system: MDA-N
[24] = system: MOLT-4
[25] = system: Malme-3M
[26] = system: NCI-H226
[27] = system: NCI-H23
[28] = system: NCI-H460
[29] = system: NCI/ADR-RES
[30] = system: OVCAR-3
[31] = system: OVCAR-4
[32] = system: OVCAR-5
[33] = system: OVCAR-8
[34] = system: PC-3
[35] = system: RPMI-8226
[36] = system: RXF 393
[37] = system: SF-268
[38] = system: SF-295
[39] = system: SF-539
[40] = system: SK-MEL-28
[41] = system: SK-MEL-2
[42] = system: SK-MEL-5
[43] = system: SK-OV-3
[44] = system: SN12C
[45] = system: SNB-19
[46] = system: SNB-75
[47] = system: SR
[48] = system: SW-620
[49] = system: T47D
[50] = system: TK-10
[51] = system: U-251
[52] = system: UACC-257
[53] = system: UACC-62
[54] = system: UO-31
[55] = system: 786-0
[56] = system: HCT-15
[57] = system: HL-60
[58] = system: NCI-H522
[59] = system: A498

## Brc1ccc2c(c1)[C@H]1CCc3c([nH]c4ccccc34)[C@H]1N2
[1]
  GI50: 14.8 µM (inactive)
[2]
  GI50: 12.5 µM (inactive)
[3]
  GI50: 18.4 µM (inactive)
[4]
  GI50: 10.2 µM (inactive)
[5]
  GI50: 3.91 µM (inactive)
[6]
  GI50: 11.5 µM (inactive)
[7]
  GI50: 12.9 µM (inactive)
[8]
  GI50: 10.8 µM (inactive)
[9]
  GI50: 12.9 µM (inactive)
[10]
  GI50: 8.49 µM (inactive)
[11]
  GI50: 10.9 µM (inactive)
[12]
  GI50: 13.3 µM (inactive)
[13]
  GI50: 14.1 µM (inactive)
[14]
  GI50: 25.4 µM (inactive)
[15]
  GI50: 0.369 µM (active)
[16]
  GI50: 4.85 µM (inactive)
[17]
  GI50: 5.31 µM (inactive)
[18]
  GI50: 4.38 µM (inactive)
[19]
  GI50: 13.2 µM (inactive)
[20]
  GI50: 3.42 µM (inactive)
[21]
  GI50: 1.6 µM (inactive)
[22]
  GI50: 13.4 µM (inactive)
[23]
  GI50: 14.9 µM (inactive)
[24]
  GI50: 2.2 µM (inactive)
[25]
  GI50: 10.7 µM (inactive)
[26]
  GI50: 12.1 µM (inactive)
[27]
  GI50: 12.4 µM (inactive)
[28]
  GI50: 12.4 µM (inactive)
[29]
  GI50: 14.2 µM (inactive)
[30]
  GI50: 10.6 µM (inactive)
[31]
  GI50: 13 µM (inactive)
[32]
  GI50: 11.7 µM (inactive)
[33]
  GI50: 13.3 µM (inactive)
[34]
  GI50: 5.9 µM (inactive)
[35]
  GI50: 4.39 µM (inactive)
[36]
  GI50: 12 µM (inactive)
[37]
  GI50: 15.1 µM (inactive)
[38]
  GI50: 11.6 µM (inactive)
[39]
  GI50: 2.36 µM (inactive)
[40]
  GI50: 14 µM (inactive)
[41]
  GI50: 16.6 µM (inactive)
[42]
  GI50: 3.13 µM (inactive)
[43]
  GI50: 14.3 µM (inactive)
[44]
  GI50: 13 µM (inactive)
[45]
  GI50: 13.7 µM (inactive)
[46]
  GI50: 21.3 µM (inactive)
[47]
  GI50: 0.889 µM (active)
[48]
  GI50: 14.4 µM (inactive)
[49]
  GI50: 3.11 µM (inactive)
[50]
  GI50: 11.2 µM (inactive)
[51]
  GI50: 10.1 µM (inactive)
[52]
  GI50: 12.8 µM (inactive)
[53]
  GI50: 11.5 µM (inactive)
[54]
  GI50: 11.4 µM (inactive)

## Nc1ccc(Nc2c3ccccc3nc3ccccc23)cc1
[55]
  GI50: 3.1 µM (inactive)
[1]
  GI50: 3.15 µM (inactive)
[2]
  GI50: 1.89 µM (inactive)
[3]
  GI50: > 10 µM (inactive)
[4]
  GI50: 2.91 µM (inactive)
[5]
  GI50: 2.09 µM (inactive)
[6]
  GI50: 3.78 µM (inactive)
[7]
  GI50: 4.92 µM (inactive)
[8]
  GI50: 8.51 µM (inactive)
[9]
  GI50: > 10 µM (inactive)
[10]
  GI50: 3.15 µM (inactive)
[56]
  GI50: 2840 nM
[57]
  GI50: 1.8 µM (inactive)
[11]
  GI50: 4.32 µM (inactive)
[13]
  GI50: 3.49 µM (inactive)
[14]
  GI50: 7.55 µM (inactive)
[15]
  GI50: 6.65 µM (inactive)
[16]
  GI50: 4.86 µM (inactive)
[17]
  GI50: 8.05 µM (inactive)
[18]
  GI50: 1.06 µM (active)
[19]
  GI50: 6.95 µM (inactive)
[20]
  GI50: 2.2 µM (inactive)
[21]
  GI50: 5.81 µM (inactive)
[22]
  GI50: 5.51 µM (inactive)
[23]
  GI50: 5.12 µM (inactive)
[24]
  GI50: 0.568 µM (active)
[25]
  GI50: 2.98 µM (inactive)
[26]
  GI50: 1.38 µM (inactive)
[27]
  GI50: 3.25 µM (inactive)
[28]
  GI50: 0.565 µM (active)
[58]
  GI50: 4.79 µM (inactive)
[29]
  GI50: 4.9 µM (inactive)
[30]
  GI50: 3.89 µM (inactive)
[31]
  GI50: 3.83 µM (inactive)
[32]
  GI50: 5.52 µM (inactive)
[33]
  GI50: 3.31 µM (inactive)
[34]
  GI50: 4.75 µM (inactive)
[35]
  GI50: 4.49 µM (inactive)
[36]
  GI50: > 10 µM (inactive)
[37]
  GI50: > 10 µM (inactive)
[38]
  GI50: 2.62 µM (inactive)
[39]
  GI50: 3.7 µM (inactive)
[40]
  GI50: > 10 µM (inactive)
[41]
  GI50: 7.87 µM (inactive)
[42]
  GI50: 3.86 µM (inactive)
[43]
  GI50: 5.5 µM (inactive)
[44]
  GI50: 2.88 µM (inactive)
[45]
  GI50: 4.99 µM (inactive)
[47]
  GI50: > 10 µM (inactive)
[48]
  GI50: 2.26 µM (inactive)
[49]
  GI50: 6.49 µM (inactive)
[50]
  GI50: 5.98 µM (inactive)
[51]
  GI50: 4.4 µM (inactive)
[52]
  GI50: > 10 µM (inactive)
[53]
  GI50: 1.77 µM (inactive)

## COc1cc2[nH]c(=O)[nH]c2c2c(C)c[nH]c12
[55]
  GI50: > 100 µM (inactive)
[59]
  GI50: > 100 µM (inactive)
[1]
  GI50: > 100 µM (inactive)
[2]
  GI50: > 100 µM (inactive)
[3]
  GI50: > 100 µM (inactive)
[4]
  GI50: > 100 µM (inactive)
[5]
  GI50: > 100 µM (inactive)
[6]
  GI50: > 100 µM (inactive)
[7]
  GI50: > 100 µM (inactive)
[8]
  GI50: > 100 µM (inactive)
[9]
  GI50: > 100 µM (inactive)
[10]
  GI50: > 100 µM (inactive)
[56]
  GI50: > 100000 nM
[57]
  GI50: > 100 µM (inactive)
[11]
  GI50: > 100 µM (inactive)
[13]
  GI50: > 100 µM (inactive)
[14]
  GI50: > 100 µM (inactive)
[15]
  GI50: > 100 µM (inactive)
[16]
  GI50: > 100 µM (inactive)
[17]
  GI50: > 100 µM (inactive)
[18]
  GI50: > 100 µM (inactive)
[19]
  GI50: > 100 µM (inactive)
[20]
  GI50: > 100 µM (inactive)
[21]
  GI50: > 100 µM (inactive)
[22]
  GI50: > 100 µM (inactive)
[23]
  GI50: > 100 µM (inactive)
[24]
  GI50: > 100 µM (inactive)
[25]
  GI50: > 100 µM (inactive)
[26]
  GI50: > 100 µM (inactive)
[27]
  GI50: > 100 µM (inactive)
[28]
  GI50: > 100 µM (inactive)
[58]
  GI50: > 100 µM (inactive)
[29]
  GI50: > 100 µM (inactive)
[30]
  GI50: > 100 µM (inactive)
[31]
  GI50: > 100 µM (inactive)
[32]
  GI50: > 100 µM (inactive)
[33]
  GI50: > 100 µM (inactive)
[34]
  GI50: > 100 µM (inactive)
[35]
  GI50: > 100 µM (inactive)
[36]
  GI50: > 100 µM (inactive)
[37]
  GI50: > 100 µM (inactive)
[38]
  GI50: > 100 µM (inactive)
[40]
  GI50: > 100 µM (inactive)
[41]
  GI50: > 100 µM (inactive)
[42]
  GI50: > 100 µM (inactive)
[43]
  GI50: > 100 µM (inactive)
[44]
  GI50: > 100 µM (inactive)
[45]
  GI50: > 100 µM (inactive)
[46]
  GI50: > 100 µM (inactive)
[47]
  GI50: > 100 µM (inactive)
[48]
  GI50: > 100 µM (inactive)
[49]
  GI50: > 100 µM (inactive)
[50]
  GI50: > 100 µM (inactive)
[51]
  GI50: > 100 µM (inactive)
[52]
  GI50: > 100 µM (inactive)
[53]
  GI50: > 100 µM (inactive)
[54]
  GI50: > 100 µM (inactive)
